Laboratory results: patent US11141413B2, “Method of treating renal cell carcinoma using N-(4-(6,7-dimethoxyquinolin-4-yloxy)phenyl)-N′-(4-fluorophenyl)cyclopropane-1,1-dicarboxamide, (2S)-hydroxybutanedioate” (Exelixis, Inc., priority 2016, dated 2021)

Tests used:
[1] = test system: patients with advanced renal cell carcinoma; assay: METEOR quality of life (FKSI-19, FKSI-DRS, EQ-5D-5L) and time to deterioration; type: in vivo, human; conditions: for Able to work, LSMean change from baseline / Blood in my urine, LSMean change from baseline / Bone pain, LSMean change from baseline / Content with quality life, LSMean change from baseline / Coughing, LSMean change from baseline / Diarrhea, LSMean change from baseline / Enjoy life, LSMean change from baseline / Fatigued, LSMean change from baseline / Fevers, LSMean change from baseline / Good appetite, LSMean change from baseline / Lack of energy, LSMean change from baseline / Losing weight, LSMean change from baseline / Nausea, LSMean change from baseline / Pain, LSMean change from baseline / Short of breath, LSMean change from baseline / Side effects of treatment, LSMean change from baseline / Sleeping well, LSMean change from baseline / Weak all over, LSMean change from baseline / Worry condition worsen, LSMean change from baseline: FKSI-19 item; for DRS-Emotional, LSMean change from baseline / DRS-Physical, LSMean change from baseline / Function/Well-Being, LSMean change from baseline / Treatment Side Effects, LSMean change from baseline: FKSI-19 subscale; for EQ-VAS, Cabo vs Evero Intercept (change at Week 4) / EQ-VAS, Cabo vs Evero Slope / FKSI-19 Total, Cabo vs Evero Intercept (change at Week 4) / FKSI-19 Total, Cabo vs Evero Slope / FKSI-DRS (9-item), Cabo vs Evero Intercept (change at Week 4) / FKSI-DRS (9-item), Cabo vs Evero Slope / EQ-Index, Evero Intercept (change at Week 4) / EQ-VAS, Evero Intercept (change at Week 4) / FKSI-19 Total, Evero Intercept (change at Week 4) / FKSI-DRS (9-item), Evero Intercept (change at Week 4): growth curve analysis; for Median time to deterioration (TTD): earlier of death, rPD, ≥4-point FKSI-DRS decrease from baseline
Source text: Patients completed the 19-item Functional Assessment of Cancer Therapy-Kidney Symptoms Index (FKSI-19) and the 5-level EuroQoL-5 Dimensions (EQ-5D-5L) questionnaires at baseline and throughout the study. The 9-item FKSI-Disease Related Symptoms (FKSI-DRS) is a subset of FKSI-19. Data were summarized descriptively and by mixed-effects repeated-measures analysis (clinically relevant difference was an effect size ≥0.3). Time to deterioration (TTD) was defined as earlier of death, radiographic progressive disease or ≥4-point decrease from baseline in FKSI-DRS.
QoL was measured by using two validated patient self-reported instruments: the Functional Assessment of Cancer Therapy-Kidney Symptom Index-19 item (FKSI-19) and EuroQol Group's EQ-5D-5L questionnaires. Patients were required to complete the QoL questionnaires before any assessments at each clinic visit prior to the first dose, every 4 weeks through Week 25, every 8 weeks thereafter for the first year, then every 12 weeks thereafter. The QoL assessments were conducted per protocol prior to the patient knowing the results of their next tumor assessment. These assessments were performed regardless of whether study treatment was given, reduced, interrupted, or discontinued until the date of the last tumor imaging assessment. Questionnaires were provided on paper in the patient's own language.
The FKSI-19 instrument is a 19-item self-reported questionnaire with a total score and four subscales that assesses disease-related symptoms (DRS), treatment side effects, and function/well-being associated with advanced kidney cancer. It queries symptom severity and interference in activity and general health perceptions (Rao D, Butt Z, Rosenbloom S, Robinson D Jr, Von Roenn J, Kuzel T M, Cella D. A Comparison of the Renal Cell Carcinoma-Symptom Index (RCC-SI) and the Functional Assessment of Cancer Therapy-Kidney Symptom Index (FKSI). J Pain Symptom Manage. 2009; 38(2):291-8; Rothrock N E, Jensen S E, Beaumont J L, Abernethy A P, Jacobsen P B, Syrjala K, Cella D. Development and initial validation of the NCCN/FACT symptom index for advanced kidney cancer. Value Health. 2013; 16(5):789-96). The FKSI-19 comprises four sub-scales (DRS-Physical, DRS-Emotional, Treatment Side Effects, and Function/Well Being; Table 2.1). Each of the items is scored on a 5-point scale from 0 (not at all) to 4 (very much). Higher FKSI-19 scores indicate improvement. The FKSI-19 ensures content validity congruent with FDA Guidance (FDA. Guidance for Industry. Patient-Reported Outcome Measures: Use in Medical Product Development to Support Labeling Claims. December 2009). and was developed from a previous 9-item DRS version (FKSI-DRS; lack of energy, pain, losing weight, fatigue, short of breath, fevers, bone pain, coughing, blood in urine). The FKSI-19 includes selected treatment side effects that are important to the patient and physician.
The standardized measure of health status EQ-5D-5L, developed by the EuroQol, was also used in this study in order to measure generic health status (Herdman M, Gudex C, Lloyd A, Janssen M, Kind P, Parkin D, t al. Development and preliminary testing of the new five-level version of EQ-5D (EQ-5D-5L). Qual Life Res. 2011; 20(10):1727-36). It comprises five functional and symptom dimensions: mobility, self-care, usual activities, pain/discomfort, and anxiety/depression. Levels indicate increasing severity from Level 1 (no problem) to Levels 2 through 5 (mild problem to extreme problem). The digits from the 5 dimensions were converted into a single population-based index value normalized across the nine countries in the study for which index value sets were available (van Hout B, Janssen M F, Feng Y S, Kohlmann T, Busschbach J, Golicki D, et al. Interim scoring for the EQ-5D-5L: mapping the EQ-5D-5L to EQ-5D-3L value sets. Value Health. 2012; 15(5):708-15). Index values range from 0 to 1 and a higher index score indicates better health. […]

[2] = Clinical pharmacokinetics of cabozantinib (absorption, distribution, elimination); type: in vivo, human
Source text: […]; steady state was achieved by Day 15.

MER = MER (Homo sapiens, UniProt Q12866); assay: In vitro biochemical and/or cellular kinase assays
CYP3A4 = CYP3A4 (Homo sapiens, UniProt P08684); assay: Metabolic pathways in vitro: effect of CYP inhibition on cabozantinib metabolite formation; type: in vitro ADME
CYP2D6 = CYP2D6 (Homo sapiens, UniProt P10635); assay: as above; type: in vitro ADME
QTc interval = conditions: human, in vivo
TIE-2 = TIE-2 (Homo sapiens, UniProt Q02763); assay: In vitro biochemical and/or cellular kinase assays
[3] = bone metastases per IRC at baseline: No
[4] = bone metastases per IRC at baseline: Yes
[5] = cabozantinib vs everolimus, positive favors cabozantinib
[6] = Late Dropout (Week 41 or later)

Chain of CYP3A4 (P08684 whole entry): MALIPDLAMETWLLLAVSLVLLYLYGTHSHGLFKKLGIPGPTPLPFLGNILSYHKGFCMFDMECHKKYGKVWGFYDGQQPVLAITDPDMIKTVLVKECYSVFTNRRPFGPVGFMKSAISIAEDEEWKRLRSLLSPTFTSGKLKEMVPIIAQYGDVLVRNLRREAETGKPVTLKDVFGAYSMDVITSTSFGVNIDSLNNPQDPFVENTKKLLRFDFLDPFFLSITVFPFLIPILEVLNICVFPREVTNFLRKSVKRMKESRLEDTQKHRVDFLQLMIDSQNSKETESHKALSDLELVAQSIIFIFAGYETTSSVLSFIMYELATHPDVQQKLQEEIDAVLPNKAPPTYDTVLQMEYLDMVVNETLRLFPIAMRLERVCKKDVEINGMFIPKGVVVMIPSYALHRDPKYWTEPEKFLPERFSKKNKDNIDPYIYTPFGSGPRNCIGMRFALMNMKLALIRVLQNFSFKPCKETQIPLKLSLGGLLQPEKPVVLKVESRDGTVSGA
Chain of TIE-2 (Q02763 23-1124): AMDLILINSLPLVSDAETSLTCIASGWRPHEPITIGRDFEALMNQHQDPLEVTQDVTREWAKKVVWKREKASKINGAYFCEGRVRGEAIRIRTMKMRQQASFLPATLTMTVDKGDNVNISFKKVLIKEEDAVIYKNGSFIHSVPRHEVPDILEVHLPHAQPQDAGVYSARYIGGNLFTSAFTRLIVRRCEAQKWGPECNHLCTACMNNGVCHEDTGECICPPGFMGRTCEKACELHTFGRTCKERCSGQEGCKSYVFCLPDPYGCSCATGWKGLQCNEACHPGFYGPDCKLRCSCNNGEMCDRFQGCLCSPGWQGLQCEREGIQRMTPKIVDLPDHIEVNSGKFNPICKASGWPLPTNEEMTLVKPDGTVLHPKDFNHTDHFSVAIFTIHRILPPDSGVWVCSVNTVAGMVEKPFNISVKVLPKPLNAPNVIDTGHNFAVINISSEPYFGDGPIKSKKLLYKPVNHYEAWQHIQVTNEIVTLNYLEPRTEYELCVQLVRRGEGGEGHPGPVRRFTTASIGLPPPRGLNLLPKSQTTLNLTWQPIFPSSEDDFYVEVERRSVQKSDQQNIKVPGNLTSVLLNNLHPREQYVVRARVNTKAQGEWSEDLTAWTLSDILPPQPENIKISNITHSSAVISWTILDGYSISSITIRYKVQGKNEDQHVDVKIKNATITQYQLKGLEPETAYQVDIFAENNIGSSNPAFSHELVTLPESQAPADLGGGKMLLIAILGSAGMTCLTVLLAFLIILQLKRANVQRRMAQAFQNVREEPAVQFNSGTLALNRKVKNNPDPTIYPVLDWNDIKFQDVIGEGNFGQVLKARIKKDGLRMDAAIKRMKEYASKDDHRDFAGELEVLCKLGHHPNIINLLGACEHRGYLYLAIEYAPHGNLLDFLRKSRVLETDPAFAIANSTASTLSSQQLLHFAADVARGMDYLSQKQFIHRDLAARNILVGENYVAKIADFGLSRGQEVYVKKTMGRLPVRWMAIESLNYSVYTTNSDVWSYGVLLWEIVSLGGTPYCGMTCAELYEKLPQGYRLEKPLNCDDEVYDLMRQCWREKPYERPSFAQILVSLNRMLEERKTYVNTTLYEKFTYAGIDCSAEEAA
Chain of MER (Q12866 21-999): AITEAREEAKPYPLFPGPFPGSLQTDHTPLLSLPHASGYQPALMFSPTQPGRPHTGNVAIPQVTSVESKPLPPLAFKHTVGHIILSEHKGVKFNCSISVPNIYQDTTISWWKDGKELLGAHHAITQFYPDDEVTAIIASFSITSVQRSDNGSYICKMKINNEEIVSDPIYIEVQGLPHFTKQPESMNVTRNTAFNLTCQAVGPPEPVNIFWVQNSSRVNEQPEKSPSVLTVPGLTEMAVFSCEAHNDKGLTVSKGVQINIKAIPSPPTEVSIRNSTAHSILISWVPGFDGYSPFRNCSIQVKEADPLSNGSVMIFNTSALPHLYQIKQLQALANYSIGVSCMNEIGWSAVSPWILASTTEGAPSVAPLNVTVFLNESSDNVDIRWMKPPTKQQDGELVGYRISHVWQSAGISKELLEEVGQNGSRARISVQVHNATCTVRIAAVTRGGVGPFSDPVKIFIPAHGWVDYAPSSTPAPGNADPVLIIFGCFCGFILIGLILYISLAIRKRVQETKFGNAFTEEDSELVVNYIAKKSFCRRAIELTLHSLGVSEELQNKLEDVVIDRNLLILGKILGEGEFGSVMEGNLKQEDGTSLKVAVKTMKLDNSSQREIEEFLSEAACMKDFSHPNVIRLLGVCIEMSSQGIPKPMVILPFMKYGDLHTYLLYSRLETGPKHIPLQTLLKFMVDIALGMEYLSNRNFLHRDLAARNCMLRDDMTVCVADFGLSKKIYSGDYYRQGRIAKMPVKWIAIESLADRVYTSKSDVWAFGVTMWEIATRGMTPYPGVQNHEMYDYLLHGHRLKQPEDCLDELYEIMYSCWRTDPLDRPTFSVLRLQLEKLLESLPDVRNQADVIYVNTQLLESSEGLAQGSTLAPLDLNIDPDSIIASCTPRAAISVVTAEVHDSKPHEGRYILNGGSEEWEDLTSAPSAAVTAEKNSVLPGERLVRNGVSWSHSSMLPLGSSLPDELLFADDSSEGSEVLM
Chain of CYP2D6 (P10635 whole entry): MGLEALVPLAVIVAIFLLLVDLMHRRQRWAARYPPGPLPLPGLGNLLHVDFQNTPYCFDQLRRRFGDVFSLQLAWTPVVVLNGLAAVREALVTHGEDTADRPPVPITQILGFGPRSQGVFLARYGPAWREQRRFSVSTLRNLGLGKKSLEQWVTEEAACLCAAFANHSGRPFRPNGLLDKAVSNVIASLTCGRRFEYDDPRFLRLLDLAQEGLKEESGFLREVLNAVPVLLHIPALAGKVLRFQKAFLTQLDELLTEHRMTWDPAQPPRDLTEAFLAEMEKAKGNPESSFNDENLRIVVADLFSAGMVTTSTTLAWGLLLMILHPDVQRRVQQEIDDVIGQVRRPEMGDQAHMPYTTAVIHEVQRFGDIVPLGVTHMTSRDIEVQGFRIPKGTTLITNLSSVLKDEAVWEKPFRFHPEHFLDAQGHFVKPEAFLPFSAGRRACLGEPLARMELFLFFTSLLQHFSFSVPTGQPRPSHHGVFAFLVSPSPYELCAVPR

## COc1cc2nccc(Oc3ccc(NC(=O)C4(C(=O)Nc5ccc(F)cc5)CC4)cc3)c2cc1OC [cabozantinib]
[1]; repeated measures, ITT
  Able to work, LSMean change from baseline: −0.151
  Blood in my urine, LSMean change from baseline: 0.005
  Bone pain, LSMean change from baseline: 0.049
  Content with quality life, LSMean change from baseline: −0.035
  Coughing, LSMean change from baseline: 0.237
  Diarrhea, LSMean change from baseline: −1.28
  Enjoy life, LSMean change from baseline: −0.017
  Fatigued, LSMean change from baseline: −0.325
  Fevers, LSMean change from baseline: 0.056
  Good appetite, LSMean change from baseline: −0.166
  Lack of energy, LSMean change from baseline: −0.244
  Losing weight, LSMean change from baseline: −0.533
  Nausea, LSMean change from baseline: −0.236
  Pain, LSMean change from baseline: 0.125
  Short of breath, LSMean change from baseline: 0.029
  Side effects of treatment, LSMean change from baseline: −0.850
  Sleeping well, LSMean change from baseline: 0.018
  Weak all over, LSMean change from baseline: −0.281
  Worry condition worsen, LSMean change from baseline: 0.398
  DRS-Emotional, LSMean change from baseline: 0.398
  DRS-Physical, LSMean change from baseline: −1.093
  Function/Well-Being, LSMean change from baseline: −0.230
  Treatment Side Effects, LSMean change from baseline: −2.416
  EQ-VAS, LSMean change from baseline: −1.32
  FKSI-19 (19-item) Total Score, LSMean change from baseline: −3.483
  FKSI-DRS (9-item), LSMean change from baseline: −0.52
[1]; [3]
  Median TTD: 5.5 mo
  TTD HR, cabozantinib vs everolimus: 0.69
[1]; [4]
  Median TTD: 5.6 mo
  TTD HR, cabozantinib vs everolimus: 0.49
[1]; [5]
  Able to work, Effect Size: −0.037
  Blood in my urine, Effect Size: 0.023
  Bone pain, Effect Size: −0.008
  Content with quality life, Effect Size: −0.014
  Coughing, Effect Size: 0.28
  DRS-Emotional, Effect Size: 0.004
  DRS-Physical, Effect Size: 0.046
  EQ-VAS, Effect Size: −0.003
  Enjoy life, Effect Size: −0.002
  FKSI-19 (19-item) Total Score, Effect Size: −0.13
  FKSI-DRS (9-item), Effect Size: 0.087
  Fatigued, Effect Size: −0.017
  Fevers, Effect Size: 0.13
  Function/Well-Being, Effect Size: −0.019
  Good appetite, Effect Size: −0.23
  Lack of energy, Effect Size: −0.033
  Losing weight, Effect Size: −0.21
  Pain, Effect Size: 0.052
  Side effects of treatment, Effect Size: −0.24
  Sleeping well, Effect Size: 0.12
  Weak all over, Effect Size: −0.015
  Worry condition worsen, Effect Size: 0.004
[1]; Early Dropout (before Week 24)
  EQ-VAS, Cabo vs Evero Intercept (change at Week 4): −1.933
  EQ-VAS, Cabo vs Evero Slope: 0.498
  FKSI-19 Total, Cabo vs Evero Intercept (change at Week 4): 0.241
  FKSI-19 Total, Cabo vs Evero Slope: 0.131
  FKSI-DRS (9-item), Cabo vs Evero Intercept (change at Week 4): 1.445
  FKSI-DRS (9-item), Cabo vs Evero Slope: 0.037
[1]; [6]
  EQ-VAS, Cabo vs Evero Intercept (change at Week 4): −4.749
  EQ-VAS, Cabo vs Evero Slope: 0.134
  FKSI-19 Total, Cabo vs Evero Intercept (change at Week 4): −5.141
  FKSI-19 Total, Cabo vs Evero Slope: 0.082
  FKSI-DRS (9-item), Cabo vs Evero Intercept (change at Week 4): −1.307
  FKSI-DRS (9-item), Cabo vs Evero Slope: 0.046
[1]; Median Dropout (Weeks 25-33)
  EQ-VAS, Cabo vs Evero Intercept (change at Week 4): −0.352
  EQ-VAS, Cabo vs Evero Slope: 0.146
  FKSI-19 Total, Cabo vs Evero Intercept (change at Week 4): −2.003
  FKSI-19 Total, Cabo vs Evero Slope: 0.141
  FKSI-DRS (9-item), Cabo vs Evero Intercept (change at Week 4): −0.313
  FKSI-DRS (9-item), Cabo vs Evero Slope: 0.094
[1]; overall ITT, unstratified
  TTD HR, cabozantinib vs everolimus: 0.65
[1]; overall ITT
  Median time to deterioration (TTD): 5.5 mo
[2]; age 32-86 years, eGFR ≥30 mL/min/1.73 m^2
  Effect of age, sex, race, mild to moderate renal impairment on pharmacokinetics: did not result in a clinically relevant difference
[2]; human, in vivo
  Clearance (CL/F) at steady-state: 2.2 L/h
  Predicted terminal half-life: approximately 99 hours
[2]; human, plasma, oral administration, read-out: Median time to peak plasma concentration (Tmax)
  Tmax: 2 to 3 h
[2]; repeat daily dosing at 140 mg
  Steady state achieved by: ≤ 15 days
MER
  Inhibition of tyrosine kinase activity: inhibits
CYP3A4
  CYP3A4 substrate status in vitro: substrate
CYP2D6
  Effect of inhibition of CYP2D6 on cabozantinib metabolite formation: no effect
QTc interval
  Changes in cardiac wave form morphology or new rhythms: not observed
TIE-2
  Inhibition of tyrosine kinase activity: inhibits

## CO[C@H]1C[C@@H]2CC[C@@H](C)[C@@](O)(O2)C(=O)C(=O)N2CCCC[C@H]2C(=O)O[C@H]([C@H](C)C[C@@H]2CC[C@@H](OCCO)[C@H](OC)C2)CC(=O)[C@H](C)/C=C(\C)[C@@H](O)[C@@H](OC)C(=O)[C@H](C)C[C@H](C)/C=C/C=C/C=C/1C [everolimus]
[1]; repeated measures, ITT
  Able to work, LSMean change from baseline: −0.101
  Blood in my urine, LSMean change from baseline: −0.001
  Bone pain, LSMean change from baseline: 0.057
  Content with quality life, LSMean change from baseline: −0.017
  Coughing, LSMean change from baseline: −0.059
  Diarrhea, LSMean change from baseline: −0.326
  Enjoy life, LSMean change from baseline: −0.014
  Fatigued, LSMean change from baseline: −0.305
  Fevers, LSMean change from baseline: −0.021
  Good appetite, LSMean change from baseline: 0.181
  Lack of energy, LSMean change from baseline: −0.207
  Losing weight, LSMean change from baseline: −0.301
  Nausea, LSMean change from baseline: 0.069
  Pain, LSMean change from baseline: 0.067
  Short of breath, LSMean change from baseline: −0.271
  Side effects of treatment, LSMean change from baseline: −0.523
  Sleeping well, LSMean change from baseline: −0.152
  Weak all over, LSMean change from baseline: −0.265
  Worry condition worsen, LSMean change from baseline: 0.393
  DRS-Emotional, LSMean change from baseline: 0.393
  DRS-Physical, LSMean change from baseline: −1.386
  Function/Well-Being, LSMean change from baseline: −0.169
  Treatment Side Effects, LSMean change from baseline: −0.814
  EQ-Index, LSMean change from baseline: −0.02
  EQ-VAS, LSMean change from baseline: −1.27
  FKSI-19 (19-item) Total Score, LSMean change from baseline: −2.214
  FKSI-DRS (9-item), LSMean change from baseline: −0.93
[1]; [3]
  Median TTD: 3.8 mo
[1]; [4]
  Median TTD: 1.9 mo
[1]; Early Dropout (before Week 24)
  EQ-Index, Evero Intercept (change at Week 4): −0.046
  EQ-VAS, Evero Intercept (change at Week 4): −2.474
  FKSI-19 Total, Evero Intercept (change at Week 4): −3.643
  FKSI-DRS (9-item), Evero Intercept (change at Week 4): −2.002
[1]; [6]
  EQ-Index, Evero Intercept (change at Week 4): 0.033
  EQ-VAS, Evero Intercept (change at Week 4): 1.012
  FKSI-19 Total, Evero Intercept (change at Week 4): 1.105
  FKSI-DRS (9-item), Evero Intercept (change at Week 4): 0.453
[1]; Median Dropout (Weeks 25-33)
  EQ-Index, Evero Intercept (change at Week 4): −0.018
  EQ-VAS, Evero Intercept (change at Week 4): −1.181
  FKSI-19 Total, Evero Intercept (change at Week 4): −1.838
  FKSI-DRS (9-item), Evero Intercept (change at Week 4): −0.843
[1]; overall ITT
  Median time to deterioration (TTD): 3.7 mo
